From patent US20230348540A1, “Viral multimeric peptide constructs for targeting PDZ domains” (University of Copenhagen, priority 2020, published 2023)
One block for each compound: values may come before it. Peptide text beside a SMILES is read from it. * marks the point of attachment. Biotin = O=C1N[C@H]2[C@H](CS[C@H]2CCCCC(=O)*)N1; Ahx = NCCCCCC(=O)O

Columns and labels:
PICK1 [1] = target: T1, PICK1 (Rattus norvegicus, UniProt Q9EP80); test: Fluorescence Polarization for PICK1 (Example 8); assay type: binding; settings: in words, FIG. 17
T1 construct: Full length rat PICK1 (pET41) was prepared as described earlier; inferred from pET41 and glutathione-Sepharose capture) (N, cleaved yes); made in house; host or cells: E. coli BL21-DE3-pLysS
T1 sequence (Q9EP80 whole entry): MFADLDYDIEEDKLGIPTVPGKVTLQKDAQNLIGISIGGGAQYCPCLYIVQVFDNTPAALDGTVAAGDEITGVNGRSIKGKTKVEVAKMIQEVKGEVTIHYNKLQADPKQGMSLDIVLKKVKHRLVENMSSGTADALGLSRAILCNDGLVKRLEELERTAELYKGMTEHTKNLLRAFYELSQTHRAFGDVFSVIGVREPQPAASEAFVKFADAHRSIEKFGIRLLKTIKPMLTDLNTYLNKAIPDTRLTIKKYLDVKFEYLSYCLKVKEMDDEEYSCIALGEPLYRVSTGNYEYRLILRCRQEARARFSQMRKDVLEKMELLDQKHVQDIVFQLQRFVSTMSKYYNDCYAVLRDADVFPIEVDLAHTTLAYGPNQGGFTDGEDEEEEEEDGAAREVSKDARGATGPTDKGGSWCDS
Experimental: The plates were incubated 30-40 min on ice and the fluorescence polarization was measured on an Omega POLARstar plate (BMG LABTECH) reader using excitation filter at 485 nm and long pass emission filter at 520 nm. The data was plotted using GraphPad Prism 8.3, and fitted to the ‘One site—Fit’ Ki competition curve, to extract apparent KI values.

[2] = SEC-MALS of peptides (oligomeric state); assay type: physicochemical; settings: 50 μL of 1000 μM peptide, Example 7
Experimental: Size exclusion chromatography Multi angle light scattering (SEC-MALS): was done using an Agilent HPLC equipped with a Wyatt MALS setup, where 50 μL of 1000 μM, of indicated peptide, was loaded onto a Superdex200 Increase 10/300 column. Resulting data was analyzed and molecular weight was calculated using the ASTRA® software package, data was plotted using GraphPad Prism 8.3.

PSD-95 PDZ12 [3] = target: T2, PSD-95 PDZ12 (Homo sapiens, UniProt P78352); test: Fluorescence polarization for PSD-95 PDZ12 (Example 8); assay type: binding; settings: in words, FIG. 18
T2 construct: Fluorescence polarization for PSD-95 (FL and PDZ12)
T2 sequence (P78352 61-249 limits assumed): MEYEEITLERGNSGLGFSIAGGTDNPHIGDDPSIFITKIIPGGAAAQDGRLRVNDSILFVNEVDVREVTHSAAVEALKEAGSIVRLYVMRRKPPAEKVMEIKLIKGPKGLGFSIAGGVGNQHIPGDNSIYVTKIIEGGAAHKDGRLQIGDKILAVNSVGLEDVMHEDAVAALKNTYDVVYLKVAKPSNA
Experimental: Fluorescence polarization for PSD-95 (FL and PDZ12): Fluorescence polarization was carried out in competition mode at a fixed concentration of protein (150 nM) and tracer (5[…], 5 nM), against an increasing concentration of unlabeled peptide.

FL-PSD-95 = target: T3, FL-PSD-95 (Homo sapiens, UniProt P78352); test: Size exclusion chromatography of PSD-95 in absence or presence of peptide; settings: 10 μM FL-PSD-95, 50 μM peptide, Example 8
T3 construct: TRX-6xHis-hPSD95 1-724 encoding plasmid; TRX (thioredoxin) (N); 6xHis (N); made in house; host or cells: E. coli BL21-DE3-pLysS
T3 sequence (P78352 whole entry): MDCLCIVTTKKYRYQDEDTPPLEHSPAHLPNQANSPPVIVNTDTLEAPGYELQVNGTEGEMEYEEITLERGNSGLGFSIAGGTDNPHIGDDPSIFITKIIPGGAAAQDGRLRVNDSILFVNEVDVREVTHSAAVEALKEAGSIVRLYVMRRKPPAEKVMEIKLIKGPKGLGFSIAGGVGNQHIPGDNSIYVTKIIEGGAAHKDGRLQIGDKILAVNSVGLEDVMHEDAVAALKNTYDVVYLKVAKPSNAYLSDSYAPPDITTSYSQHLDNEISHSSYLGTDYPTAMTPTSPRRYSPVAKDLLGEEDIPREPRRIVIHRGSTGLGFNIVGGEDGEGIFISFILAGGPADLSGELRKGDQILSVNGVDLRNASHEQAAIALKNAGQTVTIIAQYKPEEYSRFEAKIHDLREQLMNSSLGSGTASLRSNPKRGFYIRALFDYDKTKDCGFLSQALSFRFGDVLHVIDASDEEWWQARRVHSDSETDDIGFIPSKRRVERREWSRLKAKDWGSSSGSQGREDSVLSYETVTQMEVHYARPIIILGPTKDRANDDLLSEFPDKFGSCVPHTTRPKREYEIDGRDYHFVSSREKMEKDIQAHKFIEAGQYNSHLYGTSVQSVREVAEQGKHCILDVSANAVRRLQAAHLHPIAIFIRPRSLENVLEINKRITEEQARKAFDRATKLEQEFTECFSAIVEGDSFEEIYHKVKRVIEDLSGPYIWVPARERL
Experimental: (§1) Size exclusion chromatography: was done using a Äkta purifier with a Superdex200 Increase 10/300 column, where, 500 μL of 30 μM PICK1 or 200 μL 10 uM of FL-PSD-95 in absence or presence of peptides was loaded. Absorbance profile was measured at 280 nm and plotted against elution volume using Graph Pad Prism 8.3.

PSD-95 PDZ12 [4] = target: T2, PSD-95 PDZ12; test: Confocal microscopy on liquid-liquid phase separation droplets, PSD-95 PDZ1-2 (Example 8); settings: 100 μM PSD-95 PDZ1-2
Experimental: Images were acquired using averaging of 4 line scans and 12-bit. The liquid-liquid phase separation droplets were prepared in the desired concentration in Phosphate buffered Saline supplemented with 1 mM TCEP (PBS-TCEP) and added to an untreated lab tec (155411PK) and imaged after being allowed to settle for 5 min at 25° C. For samples containing fluorescent protein or peptide the content of fluorescent protein or peptide was kept at 1% of indicated total protein or peptide concentration.

PICK1 [5] = target: T1, PICK1; test: Size exclusion chromatography of PICK1 in absence or presence of peptide; settings: 30 μM PICK1, 50 μM peptide, Example 8
Experimental: Absorbance profiles were measured at 280 nm and plotted against elution volume using Graph Pad Prism 8.3.
as §1

PICK1 [6] = target: T1, PICK1; test: Fluorescence polarization competition of HWLKV substitution peptide libraries (Example 6); assay type: binding; settings: relative to HWLKV, tracer 5FAM-HWLKV 20 nM, FIG. 7, in words
Experimental: Fluorescence polarization: Fluorescence polarization was carried out in competition mode at a fixed concentration of protein and tracer (5[…], 20 nM), against an increasing concentration of indicated unlabeled peptide. The plate was incubated 20 min on ice in a black half-area Corning Black non-binding surface 96-well plate and the fluorescence polarization was measured directly on a Omega POLARstar plate reader using excitation filter at 488-nm and long pass emission filter at 535-nm.

PSD-95 = target: T4, PSD-95 (Homo sapiens, UniProt P78352); test: SDS-PAGE sedimentation assay; settings: 3 μM PSD-95, 12 μM or 36 μM peptide
T4 construct: TRX-6xHis-hPSD95 1-724 encoding plasmid; TRX (thioredoxin) (N); 6xHis (N); made in house; host or cells: E. coli BL21-DE3-pLysS
T4 sequence (P78352 whole entry): as above
Experimental: SDS-PAGE sedimentation assay: Proteins were mixed in the desired concentration in PBS-TCEP and equilibrated for 10 min before centrifugation at 20 000 g for 15 min at 25° C. using a temperature controlled table top centrifuge. Following centrifugation the supernatant was collected and the pellet was re-suspended in an equal amount of PBS-TCEP, usually 50 μL. To ensure proper resuspension of LLPS, the samples were vortexed before addition of SDS buffer followed by boiling at 95° C. for 5 min. Supernatant and pellet fractions were run on any kD™ Mini-PROTEAN® TGX™ Precast Protein Gels (10 or 15 wells, BioRad 4569036 or 4569033). Gels were imaged using a Li-COR Odyssey gel scanner and band intensities were analyzed using ImageJ.

Compound: CC[C@H](C)[C@H](NC(=O)[C@H](CCC(=O)O)NC(=O)CNC(=O)CCCCCNC(=O)CCCC[C@@H]1SC[C@@H]2NC(=O)N[C@@H]21)C(=O)N[C@@H](C)C(=O)N[C@@H](CCCCN)C(=O)N[C@@H](CO)C(=O)N[C@@H](CC(C)C)C(=O)N[C@@H](CCCCN)C(=O)N[C@@H](CCC(=O)O)C(=O)N[C@H](C(=O)N[C@@H](C)C(=O)N[C@@H](CCCCN)C(=O)N[C@@H](CO)C(=O)N[C@@H](CC(C)C)C(=O)N[C@@H](CCCCN)C(=O)N[C@@H](CCC(=O)O)C(=O)N[C@H](C(=O)N[C@@H](C)C(=O)N[C@@H](Cc1c[nH]c2ccccc12)C(=O)N[C@@H](CO)C(=O)N[C@@H](CC(C)C)C(=O)N[C@@H](CCCCN)C(=O)N[C@@H](CCC(=O)O)C(=O)N[C@H](C(=O)N[C@@H](C)C(=O)N[C@@H](CCCCN)C(=O)N[C@@H](CO)C(=O)N[C@@H](CC(C)C)C(=O)N[C@@H](CCCCN)C(=O)NCC(=O)NCC(=O)NCC(=O)NCC(=O)N[C@@H](CO)C(=O)N[C@H](C(=O)N[C@@H](CCC(=O)O)C(=O)N[C@H](C(=O)N[C@@H](CC(=O)O)C(=O)N[C@H](C(=O)O)C(C)C)[C@@H](C)O)[C@@H](C)CC)[C@@H](C)CC)[C@@H](C)CC)[C@@H](C)CC [CC-Hex2-GS4-IETDV] ({Biotin-Ahx}-GEIAKSLKEIAKSLKEIAWSLKEIAKSLKGGGGSIETDV-OH; C-terminus assumed)
binding affinity towards PSD95 PDZ1-2 (PSD-95 PDZ12 [3]): high binding affinity
formation of higher order oligomers of PSD-95 (SEC) (FL-PSD-95): ability to form higher order oligomers of PSD-95

Compound: CC[C@H](C)[C@H](NC(=O)[C@H](CCC(=O)O)NC(=O)CNC(=O)CCCCCNC(=O)CCCC[C@@H]1SC[C@@H]2NC(=O)N[C@@H]21)C(=O)N[C@@H](C)C(=O)N[C@@H](CCCCN)C(=O)N[C@@H](CO)C(=O)N[C@@H](CC(C)C)C(=O)N[C@@H](CCCCN)C(=O)N[C@@H](CCC(=O)O)C(=O)N[C@H](C(=O)N[C@@H](C)C(=O)N[C@@H](CCCCN)C(=O)N[C@@H](CO)C(=O)N[C@@H](CC(C)C)C(=O)N[C@@H](CCCCN)C(=O)N[C@@H](CCC(=O)O)C(=O)N[C@H](C(=O)N[C@@H](C)C(=O)N[C@@H](Cc1c[nH]c2ccccc12)C(=O)N[C@@H](CO)C(=O)N[C@@H](CC(C)C)C(=O)N[C@@H](CCCCN)C(=O)N[C@@H](CCC(=O)O)C(=O)N[C@H](C(=O)N[C@@H](C)C(=O)N[C@@H](CCCCN)C(=O)N[C@@H](CO)C(=O)N[C@@H](CC(C)C)C(=O)N[C@@H](CCCCN)C(=O)NCC(=O)NCC(=O)NCC(=O)NCC(=O)N[C@@H](CO)C(=O)N[C@@H](CCCNC(=N)N)C(=O)N[C@@H](CCCNC(=N)N)C(=O)N[C@H](C(=O)N[C@H](C(=O)N1CCC[C@H]1C(=O)N[C@H](C(=O)O)C(C)C)[C@@H](C)O)[C@@H](C)O)[C@@H](C)CC)[C@@H](C)CC)[C@@H](C)CC [CC-Hex2-GS4-RRTTPV] ({Biotin-Ahx}-GEIAKSLKEIAKSLKEIAWSLKEIAKSLKGGGGSRRTTPV-OH; C-terminus assumed)
binding affinity towards PSD95 PDZ1-2 (PSD-95 PDZ12 [3]): high binding affinity
formation of higher order oligomers of PSD-95 (SEC) (FL-PSD-95): Formation of higher order oligomers of PSD-95 was also observed
threshold for LLPS formation of PSD-95 PDZ1-2 versus dimeric GCN4p1-GS4-RRTTPV (PSD-95 PDZ12 [4]): lowered thresholds for LLPS formation

Compound: CC[C@H](C)[C@H](NC(=O)[C@H](C)NC(=O)[C@H](C)NC(=O)[C@H](CC(C)C)NC(=O)[C@H](CCC(=O)O)NC(=O)[C@H](Cc1c[nH]c2ccccc12)NC(=O)[C@H](CCCCN)NC(=O)[C@@H](NC(=O)[C@H](C)NC(=O)[C@H](C)NC(=O)[C@H](CC(C)C)NC(=O)[C@H](CCC(=O)O)NC(=O)[C@H](CCCCN)NC(=O)[C@H](CCCCN)NC(=O)[C@@H](NC(=O)[C@H](C)NC(=O)[C@H](C)NC(=O)[C@H](CC(C)C)NC(=O)[C@H](CCC(=O)O)NC(=O)[C@H](CCC(N)=O)NC(=O)[C@H](CCCCN)NC(=O)[C@@H](NC(=O)[C@H](C)NC(=O)[C@H](C)NC(=O)[C@H](CC(C)C)NC(=O)[C@H](CCC(=O)O)NC(=O)CNC(=O)CCCCCNC(=O)CCCC[C@@H]1SC[C@@H]2NC(=O)N[C@@H]21)[C@@H](C)CC)[C@@H](C)CC)[C@@H](C)CC)C(=O)N[C@@H](CCCCN)C(=O)N[C@@H](CCC(N)=O)C(=O)NCC(=O)NCC(=O)NCC(=O)NCC(=O)N[C@@H](CO)C(=O)N[C@@H](Cc1c[nH]cn1)C(=O)N[C@@H](Cc1c[nH]c2ccccc12)C(=O)N[C@@H](CC(C)C)C(=O)N[C@@H](CCCCN)C(=O)N[C@H](C(=O)O)C(C)C [CC-Tet-GS4-HWLKV] ({Biotin-Ahx}-GELAAIKQELAAIKKELAAIKWELAAIKQGGGGSHWLKV-OH; C-terminus assumed)
formation of higher order oligomers of PICK1 (SEC) (PICK1 [5]): ability to form higher order oligomers of PICK1
oligomeric configuration (SEC-MALS) [2]: trimeric configuration

Compound: GEIAKSLKEIAKSLKEIAWSLKEIAKSLKGGGGSNSVRV (CC-Hex2-GS4-NSVRV)
binding affinity to PICK1 as compared to the dimeric GCN4p1-GS4-HWLKV (PICK1 [1]): superior binding affinity

Compound: IRV [DAT-C5 variant]
Fold affinity change of combinatorial peptide library (PICK1 [6]): optimal 3-mer sequences

Compound: SNTANRRTTPV (RRTTPV monomer)
distribution of PSD-95 between supernatant and pellet (PSD-95): the majority of PSD-95 is found in the supernatant

Further lines, results first:

binding affinity to PICK1 as compared to the dimeric GCN4p1-GS4-HWLKV (PICK1 [1]): superior binding affinity
oligomeric configuration (SEC-MALS) [2]: hexameric configuration
Compound: CC[C@H](C)[C@H](NC(=O)[C@H](CCC(=O)O)NC(=O)CNC(=O)CCCCCNC(=O)CCCC[C@@H]1SC[C@@H]2NC(=O)N[C@@H]21)C(=O)N[C@@H](C)C(=O)N[C@@H](CCCCN)C(=O)N[C@@H](CO)C(=O)N[C@@H](CC(C)C)C(=O)N[C@@H](CCCCN)C(=O)N[C@@H](CCC(=O)O)C(=O)N[C@H](C(=O)N[C@@H](C)C(=O)N[C@@H](CCCCN)C(=O)N[C@@H](CO)C(=O)N[C@@H](CC(C)C)C(=O)N[C@@H](CCCCN)C(=O)N[C@@H](CCC(=O)O)C(=O)N[C@H](C(=O)N[C@@H](C)C(=O)N[C@@H](Cc1c[nH]c2ccccc12)C(=O)N[C@@H](CO)C(=O)N[C@@H](CC(C)C)C(=O)N[C@@H](CCCCN)C(=O)N[C@@H](CCC(=O)O)C(=O)N[C@H](C(=O)N[C@@H](C)C(=O)N[C@@H](CCCCN)C(=O)N[C@@H](CO)C(=O)N[C@@H](CC(C)C)C(=O)N[C@@H](CCCCN)C(=O)NCC(=O)NCC(=O)NCC(=O)NCC(=O)N[C@@H](CO)C(=O)N[C@@H](Cc1c[nH]cn1)C(=O)N[C@@H](Cc1c[nH]c2ccccc12)C(=O)N[C@@H](CC(C)C)C(=O)N[C@@H](CCCCN)C(=O)N[C@H](C(=O)O)C(C)C)[C@@H](C)CC)[C@@H](C)CC)[C@@H](C)CC [CC-Hex2-GS4-HWLKV] ({Biotin-Ahx}-GEIAKSLKEIAKSLKEIAWSLKEIAKSLKGGGGSHWLKV-OH; C-terminus assumed)

Fold affinity change of combinatorial peptide library (PICK1 [6]): optimal 4-mer sequences
Compound: EIRV (DAT C5 VARIANT)

Fold affinity change of combinatorial peptide library (PICK1 [6]): optimal 3-mer sequences
Compound: IIV [DAT-C5 variant]

Fold affinity change of combinatorial peptide library (PICK1 [6]): optimal 5-mer sequences
Compound: NSVRV (DAT C5 VARIANT)

Fold affinity change of combinatorial peptide library (PICK1 [6]): optimal 5-mer sequences
Compound: TSIRV (DAT C5 VARIANT)

Fold affinity change of combinatorial peptide library (PICK1 [6]): optimal 4-mer sequences
Compound: YIIV (DAT C5 VARIANT)
